Here are results for 17 compounds from patent publication US6197761A, “17β-2-oxo-tetrahydrofuranyl)-carbothioic acid ester, -carboxylic acid ester and -carboxylic acid amide androstane derivatives” (Glaxo Wellcome Inc., priority 1995, dated 2001).

pEC50: −log10 of the molar value.

Data set [1] addresses T1, Human Glucocorticoid Receptor (Homo sapiens, UniProt P04150).
T1 construct: endogenous in cells; host or cells: HeLa cells (stably transfected with the sPAP reporter under the MMTV LTR)
T1 sequence (P04150 1-777): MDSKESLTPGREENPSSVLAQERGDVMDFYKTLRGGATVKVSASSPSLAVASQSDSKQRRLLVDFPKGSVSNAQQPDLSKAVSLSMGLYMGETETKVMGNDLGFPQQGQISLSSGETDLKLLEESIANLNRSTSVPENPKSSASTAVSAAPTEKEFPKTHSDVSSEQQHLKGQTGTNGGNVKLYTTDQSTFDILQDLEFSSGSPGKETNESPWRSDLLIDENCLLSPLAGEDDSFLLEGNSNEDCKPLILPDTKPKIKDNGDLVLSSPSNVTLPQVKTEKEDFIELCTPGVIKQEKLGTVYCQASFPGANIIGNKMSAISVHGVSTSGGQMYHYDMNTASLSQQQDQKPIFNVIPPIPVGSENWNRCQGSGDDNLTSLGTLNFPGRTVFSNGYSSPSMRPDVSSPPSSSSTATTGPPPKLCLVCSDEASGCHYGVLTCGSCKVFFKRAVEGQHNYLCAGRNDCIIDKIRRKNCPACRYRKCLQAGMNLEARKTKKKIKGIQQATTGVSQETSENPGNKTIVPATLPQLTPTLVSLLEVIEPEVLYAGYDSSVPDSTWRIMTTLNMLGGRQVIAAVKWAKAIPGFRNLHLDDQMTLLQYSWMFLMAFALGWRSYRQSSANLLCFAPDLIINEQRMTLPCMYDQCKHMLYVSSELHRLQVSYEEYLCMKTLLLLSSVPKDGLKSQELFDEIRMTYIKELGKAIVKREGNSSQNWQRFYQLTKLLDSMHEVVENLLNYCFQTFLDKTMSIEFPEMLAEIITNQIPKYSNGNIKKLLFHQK
Nature of the data set: functional in vitro glucocorticoid assay, sPAP reporter under MMTV LTR in transfected Hela cells. To be noted: sPAP transcription in transfected Hela cells, 72 hours incubation. Type of data set: cell-based. An excerpt: The functional assay used was a modification of the method described by T. S Berger et al, of J. of Steroid Biochem. Molec. Biol. 1992, 41 (3-8), 733-738, "Interaction of Glucocorticoid analogues with the Human Glucocorticoid Receptor".
Thus, Hela cells were stably transfected with a detectable reporter gene (secreted placental alkaline phosphatase, sPAP) under the control of a glucocorticoid response promoter (the LTR of the mouse mammary tumour virus, MMTV).
Various concentrations of standard (dexamethasone) or compounds of the invention were incubated with transfected Hela cells for 72 hours. At the end of the incubation, substrate ([…]) for sPAP was added and the product measured by a spectrophotometric method. Increased absorbance reflected increased sPAP transcription and concentration-response lines were constructed such that EC50 -values could be estimated.

The nature of data set [2]: Hydrolysis in Blood (stability in human plasma). It is filed as in vitro ADME.
The test system of another data set is rat ear oedema. As to the kind of experiment: Anti-inflammatory activity: inhibition of rat ear oedema (croton oil). Type of data set: in vivo. To be noted: topical to ear with 5% croton oil in acetone, male rats, 6 hours. The method, then: (i) Anti-inflammatory Activity--Inhibition of rat ear oedema
The test compounds are dissolved in acetone and 40 ul containing 5% croton oil is applied to the inner surface of each of the ears of 60-80 g male rats. Animals are killed 6 hours later and the ears are removed. Standard size (0.5 cm diameter) discs are punched out and the discs weighed. Mean weight of the ear discs is calculated and from this percentage inhibition of ear inflammation in relation to croton oil alone treated ears are calculated.

In general, pEC50 refers to −log10 of the EC50, conventionally taken in molar units. Higher therefore signals a small EC50. As to `CC1(C)O[C@@H]2C[C@H]3[C@@H]4C[C@H](F)C5=CC(=O)C=C[C@]5(C)[C@@]4(F)[C@@H](O)C[C@]3(C)[C@]2(C(=O)N[C@H]2COC(=O)C2)O1` [Example 24, 6α,9α-Difluoro-11β-hydroxy-16α,17α-isopropylidenedioxy-3-oxo-androsta-1,4-diene-17β-carboxylic acid N-(2-oxo-tetrahydro-furan-4R-yl) amide], the pEC50 in data set [1] was > 6.40.
For the compound `CCC(=O)O[C@]1(C(=O)SC2CCOC2=O)[C@H](C)C[C@H]2[C@@H]3C[C@H](F)C4=CC(=O)C=C[C@]4(C)[C@@]3(F)[C@@H](O)C[C@@]21C` (stereo partly drawn) [Example 1, 6α,9α-Difluoro-11β-hydroxy-16α-methyl-3-oxo-17α-propionyloxy-androsta-1,4-diene-17β-carbothioic acid S-(2-oxo-tetrahydro-furan-3-yl) ester], the pEC50 in data set [1] was > 6.40.
On the same count and under the same terms, in the case of `CC1(C)O[C@@H]2C[C@H]3[C@@H]4C[C@H](F)C5=CC(=O)C=C[C@]5(C)[C@@]4(F)[C@@H](O)C[C@]3(C)[C@]2(C(=O)SC2CCOC2=O)O1` (single isomer, unassigned) [Example 12, 6α,9α-Difluoro-11β-hydroxy-16α,17α-isopropylidenedioxy-3-oxoandrosta-1,4-diene-17β-carbothioic acid S-(2-oxo-tetrahydro-furan-3-yl) ester] it was > 6.40; in that of `CCC(=O)O[C@]1(C(=O)SC2CCOC2=O)[C@@H](C)C[C@H]2[C@@H]3CCC4=CC(=O)C=C[C@]4(C)[C@@]3(F)[C@@H](O)C[C@@]21C` (single isomer, unassigned) [Example 7, 9α-Fluoro-11β-hydroxy-16β-methyl-3-oxo-17α-propionyloxy-androsta-1,4-diene-17β-carbothioic acid S-(2-oxo-tetrahydro-furan-3-yl) ester], > 6.40.
One may read the half-life as how long it takes for the measured level to halve. For the compound `CCC[C@@H]1O[C@@H]2C[C@H]3[C@@H]4C[C@H](F)C5=CC(=O)CC[C@]5(C)[C@@]4(F)[C@@H](O)C[C@]3(C)[C@]2(C(=O)NC2CCOC2=O)O1` (single isomer, unassigned) [Example 22, 16α,17α-(R-Butylidenedioxy)-6α,9α-difluoro-11β-hydroxy-3-oxo-androst-4-ene-17β-carboxylic acid N-(2-oxo-tetrahydro-furan-3-yl) amide], in data set [2], the half-life was < 3 h. In data set [1], the pEC50 was > 6.40.
For the compound `CCCC(=O)O[C@]1(C(=O)SC2CCOC2=O)[C@H](C)C[C@H]2[C@@H]3C[C@H](F)C4=CC(=O)C=C[C@]4(C)[C@@]3(F)[C@@H](O)C[C@@]21C` (stereo partly drawn) [Example 5, 17α-Butyryloxy-6α,9α-difluoro-11β-hydroxy-16α-methyl-3-oxo-androsta-1,4-diene-17β-carbothioic acid S-(2-oxo-tetrahydro-furan-3-yl) ester], the pEC50 in data set [1] is > 6.40.
In the case of `CCC(=O)O[C@]1(C(=O)SC2COC(=O)C2)[C@H](C)C[C@H]2[C@@H]3C[C@H](F)C4=CC(=O)C=C[C@]4(C)[C@@]3(F)[C@@H](O)C[C@@]21C` (stereo partly drawn) [Example 9, 6α,9α-Difluoro-11α-hydroxy-16α-methyl-3-oxo-17α-propionyloxy-androsta-1,4-diene-17β-carbothioic acid S-(2-oxo-tetrahydro-furan-4-yl) ester], in data set [1], the pEC50 is > 6.40.
With `CCC[C@@H]1O[C@@H]2C[C@H]3[C@@H]4C[C@H](F)C5=CC(=O)CC[C@]5(C)[C@@]4(F)[C@@H](O)C[C@]3(C)[C@]2(C(=O)SC2CCOC2=O)O1` (single isomer, unassigned) [Example 19 Isomer A, 16α,17α-(R-Butylidenedioxy)-6α,9α-difluoro-11β-hydroxy-3-oxo-androst-4-ene-17β-carbothioic acid S-(2-oxo-tetrahydro-furan-3-yl) ester], the “% Inhibition (ear inflammation)” value in the data set with rat ear oedema (dose 100 μg) amounted to 54%.
In the case of `CCC[C@@H]1O[C@@H]2C[C@H]3[C@@H]4C[C@H](F)C5=CC(=O)CC[C@]5(C)[C@@]4(F)[C@@H](O)C[C@]3(C)[C@]2(C(=O)SC2CCOC2=O)O1` (single isomer, unassigned) [Example 19 Isomer B, 16α,17α-(R-Butylidenedioxy)-6α,9α-difluoro-11β-hydroxy-3-oxo-androst-4-ene-17β-carbothioic acid S-(2-oxo-tetrahydro-furan-3-yl) ester], the “% Inhibition (ear inflammation)” value in the data set with rat ear oedema (dose 100 μg) came out at 43%.
Consider `CC1(C)O[C@@H]2C[C@H]3[C@@H]4C[C@H](F)C5=CC(=O)C=C[C@]5(C)[C@@]4(F)[C@@H](O)C[C@]3(C)[C@]2(C(=O)N[C@H]2CCOC2=O)O1` [Example 15, 6α,9α-Difluoro-11β-hydroxy-16α,17α-isopropylidenedioxy-3-oxo-androsta-1,4-diene-17β-carboxylic acid N-(2-oxo-tetrahydro-furan-3S-yl) amide], for which, in data set [2], the half-life is < 3 h. Moreover, the pEC50 in data set [1] was > 6.40.
Consider `CCC(=O)O[C@]1(C(=O)SC2CCOC2=O)[C@H](C)C[C@H]2[C@@H]3C[C@H](F)C4=CC(=O)CC[C@]4(C)[C@@]3(F)[C@@H](O)C[C@@]21C` (stereo partly drawn) [Example 4], for which, in data set [1], the pEC50 is > 6.40.
Still for that read-out and setting: in the case of `CCC(=O)O[C@]1(C(=O)SC2CCC(=O)O2)[C@H](C)C[C@H]2[C@@H]3C[C@H](F)C4=CC(=O)C=C[C@]4(C)[C@@]3(F)[C@@H](O)C[C@@]21C` (stereo partly drawn) [Example 8, 6α,9α-Difluoro-11β-hydroxy-16α-methyl-3-oxo-17α-propionyloxy-androsta-1,4-diene-11β-carbothioic acid S-(5-oxo-tetrahydro-furan-2-yl) ester] it was > 6.40.
For the compound `CC1(C)O[C@@H]2C[C@H]3[C@@H]4C[C@H](F)C5=CC(=O)C=C[C@]5(C)[C@@]4(F)[C@@H](O)C[C@]3(C)[C@]2(C(=O)NC2CCOC2=O)O1` (stereo partly drawn) [Example 16, 6α,9α-Difluoro-11β-hydroxy-16α,17α-isopropylidenedioxy-3-oxo-androsta-1,4-diene-17β-carboxylic acid N-(2-oxo-tetrahydro-furan-3-yl) amide], the half-life in data set [2] is < 3 h. For the same compound, the pEC50 in data set [1] was > 6.40.
As to `CC(=O)O[C@]1(C(=O)SC2CCOC2=O)[C@H](C)C[C@H]2[C@@H]3C[C@H](F)C4=CC(=O)C=C[C@]4(C)[C@@]3(F)[C@@H](O)C[C@@]21C` (stereo partly drawn) [Example 6, 17α-Acetyloxy-α,9α-difluoro-11β-hydroxy-16α-methyl-3-oxo-androsta-1,4-diene-17β-carbothioic acid S-(2-oxo-tetrahydro-furan-3-yl) ester], the pEC50 in data set [1] was > 6.40.
For the compound `CC1(C)O[C@@H]2C[C@H]3[C@@H]4C[C@H](F)C5=CC(=O)C=C[C@]5(C)[C@@]4(F)[C@@H](O)C[C@]3(C)[C@]2(C(=O)N[C@@H]2CCOC2=O)O1` (single isomer, unassigned) [Example 16 Isomer B, 6α,9α-Difluoro-11β-hydroxy-16α,17α-isopropylidenedioxy-3-oxo-androsta-1,4-diene-17β-carboxylic acid N-(2-oxo-tetrahydro-furan-3-yl) amide], in the data set with rat ear oedema (dose 10 μg), the “% Inhibition (ear inflammation)” value is 42%.
With `CCC[C@@H]1O[C@@H]2C[C@H]3[C@@H]4C[C@H](F)C5=CC(=O)CC[C@]5(C)[C@@]4(F)[C@@H](O)C[C@]3(C)[C@]2(C(=O)SC2CCOC2=O)O1` (single isomer, unassigned) [Example 19, 16α,17α-(R-Butylidenedioxy)-6α,9α-difluoro-11β-hydroxy-3-oxo-androst-4-ene-17β-carbothioic acid S-(2-oxo-tetrahydro-furan-3-yl) ester], the pEC50 in data set [1] was > 6.40.
Turning to `CC1(C)O[C@@H]2C[C@H]3[C@@H]4C[C@H](F)C5=CC(=O)C=C[C@]5(C)[C@@]4(F)[C@@H](O)C[C@]3(C)[C@]2(C(=O)N[C@@H]2COC(=O)C2)O1` [Example 23, 6α,9α-Difluoro-11β-hydroxy-16α,17α-isopropylidenedioxy-3-oxo-androsta-1,4-diene-17β-carboxylic acid N-(2-oxo-tetrahydro-furan-4S-yl) amide], the half-life in data set [2] is < 3 h. Further, the pEC50 in data set [1] is > 6.40.
